Experimental data published in patent US10391098B2, “Antisense antibacterial compounds and methods” (priority 2014, dated 2019).
Where two headings read alike, the source gives them in different places. {(RXR)4XB} = cell-penetrating peptide (R arginine, X 6-aminohexanoic acid, B beta-alanine), conjugated via its C-terminal beta-alanine linked through a pip-PDA moiety; {TEG} = triethylene glycol end group (as defined in the publication); {Acetyl} = acetyl cap

Experiments:
E. coli SMS-3-5 = test: MIC of classical antibiotics with added PPMOs that target resistance genes; format: cell-based
Source text: FIGS. 15A-15B show the minimum inhibitory concentration (MIC) of classical antibiotics with added PPMOs that target resistance genes in E. coli SMS-3-5. (FIG. 15A) MIC of ampicillin with blaT-(RXR)4XB (PPMO#66). (FIG. 15B) MIC of chloramphemicol with cmlA-(RXR)4XB (PPMO#67). N=3.
Minimal Inhibitory Concentration Assays.
Modulating antibiotic resistance with PPMOs could be an alternative therapeutic strategy. As proof of concept, PPMOs were designed to target specific, non-essential antibiotic resistance genes. blaT is part of the TEM beta-lactamase family and is found in environmental strains of E. coli, like SMS-3-5.

[1] = system: multi-drug-resistant strain of Acinetobacter baumannii (AYE); test: MIC of colistin, meropenem, tobramycin with added PPMO (microdilution), synergy by isoboles; settings: for MIC: Acinetobacter baumannii
Description: Minimal Inhibitory Concentration Assays. Minimal inhibitory concentration (MIC) assays were performed in Mueller Hinton II medium using the microdilution method as described by the Clinical and Laboratory Standards Institute (CLSI). Optical density (OD) of cultures was read in a microplate spectrophotometer at 595-600 nm. After 18-20 hours of aerobic growth (200-250 rpm) at 37° C., 100 μl cultures with an OD of <0.06 were scored as no growth.
Synergy Studies. MICs were performed with a PPMO and a classic antibiotic (as indicated) in a 96 well plate. The PPMO was diluted first horizontally down the plate and the classic antibiotic was diluted across the rows of the plate. Inhibition was determined by visual observation and OD600 (see Berenbaum et al., J Antimicrob Chemother 12:555-563, 1983; and Berenbaum, J Infect Dis 137:122-130, 1978). […] Synergy was quantified using the method of isoboles as described (see Tallarida, Genes Cancer. 2:1003-8, 2011): (Effective concentration of antibiotic/MIC of antibiotic)+(Effective concentration of PPMO/MIC of PPMO). Calculated values less than 1 indicated synergy.
The MIC of the antibiotics colistin, meropenem, and tobramycin was measured using the microdilution method of the Clinical Laboratory Standards Institute in a 96-well microtiter plate format. Multiple, identical dilution series of each antibiotic were included on each microtiter plate. In each dilution series of antibiotic, a fixed amount of PPMO was added. Each dilution series of antibiotic included a different concentration of PPMO.

A. baumannii AYE [2] = test: MIC of tobramycin with adeA PPMO in nutrient rich and minimal media; format: cell-based; settings: for MIC of tobramycin with adeA PPMO: 8 μM adeA PPMO
[3] = system: Acinetobacter spp. (~34 strains); test: PPMO MIC (IC75) in panel of Acinetobacter strains, rich and minimal media; settings: nutrient rich MHII media
Description: Bacteria. Bacterial strains were obtained through the clinical microbiology lab at UT Southwestern unless otherwise noted. Strains also included those purchased through ATCC, the E. coli Genetic Stock Center (Yale University), or received from collaborators. They included both genome-sequenced isolates as well as clinical isolates with varying levels of antibiotic resistance. Single colonies were grown aerobically to stationary phase (1-2 mLs at 37° C., 250 rpm) in Mueller Hinton cation-adjusted (MH II) broth (Becton-Dickinson Difco BBL, Franklin Lakes, N.J., USA). The OD600 was taken and a working stock of 5×10^5 was generated based on the individual strain's colony forming units (CFU)/mL/OD. Working stocks were diluted in 150 mM NaCl and plated on tryptic-soy agar w/5% sheep blood plate (Remel, Lenexa, Kans.) to verify the starting concentration. For minimal nutrient conditions, E. coli was incubated in MOPS minimal medium (Neidhart et al., J Bacteriol 119:736-747, 1974), and Acinetobacter was performed in AB minimal media (Agrobacterium minimal media) with 10 mM citrate (Clark, J Mol Biol 23:99-112, 1967).
Minimal Inhibitory Concentration Assays. […] Optical density (OD) of cultures was read in a microplate spectrophotometer at 595-600 nm. After 18-20 hours of aerobic growth (200-250 rpm) at 37° C., 100 μl cultures with an OD of <0.06 were scored as no growth. […]

A. baumannii AYE [4] = test: Transmission electron microscopy of PPMO-treated bacteria; format: cell-based; settings: 40 μM

Question: With `O=C(N[C@H](CO)[C@H](O)c1ccc([N+](=O)[O-])cc1)C(Cl)Cl` [chloramphenicol, reference compound] as the compound, how does the MIC (E. coli SMS-3-5; Escherichia coli, SMS35, chloramphenicol alone) read?
Answer: > 512 µg/mL

Question: For `C[C@@H](O)[C@H]1C(=O)N2C(C(=O)O)=C(S[C@@H]3CN[C@H](C(=O)N(C)C)C3)[C@H](C)[C@H]12` [meropenem, reference compound], which MIC ([1]; read-out: MIC of meropenem) is on record?
Answer: 2 µg/mL

Question: How did the MIC ([1]; read-out: MIC of tobramycin) turn out when `NC[C@H]1O[C@H](O[C@H]2[C@H](O)[C@@H](O[C@H]3O[C@H](CO)[C@@H](O)[C@H](N)[C@H]3O)[C@H](N)C[C@@H]2N)[C@H](N)C[C@@H]1O` [tobramycin, reference compound] was run?
Answer: 64 µg/mL

Question: What about the “MIC of tobramycin alone” value (A. baumannii AYE [2]; AB Minimal Media) of the same compound?
Answer: 64 µg/mL

Question: And the MIC (A. baumannii AYE [2]; Acinetobacter baumannii, MHII, read-out: MIC of tobramycin alone)?
Answer: 64 µg/mL

Question: For “PPMO#6: acpP PPMO ATATCGCTCAC; 5' (RXR)4XB, 3' acetyl (all phosphorodiamidate morpholino (PMO), 5' {(RXR)4XB}, 3' {Acetyl}; further chemistry not given here)”, which “IC75 MIC” value [3] is on record?
Answer: 2000 nM

Question: For “PPMO#7: acpP PPMO ATATCGCTCAC; 5' TEG, 3' (RXR)4XB (all phosphorodiamidate morpholino (PMO), 5' {TEG}, 3' {(RXR)4XB}; further chemistry not given here)”, which “MIC of colistin in the presence of PPMO” value ([1]; 2 μM of PPMO) is on record?
Answer: 0.25 µg/mL

Question: And the “MIC of tobramycin in the presence of PPMO” value ([1]; 4 μM PPMO)?
Answer: 2 µg/mL

Question: And the “synergy (method of isoboles; values less than 1 indicate synergy), colistin + PPMO” value ([1]; colistin)?
Answer: 0.75

Question: What about the “synergy (method of isoboles), meropenem + PPMO” value ([1]; meropenem) of the same compound?
Answer: 0.75

Question: And the “synergy (method of isoboles), tobramycin + PPMO” value ([1]; tobramycin)?
Answer: 0.625

Question: What about the “IC75 MIC” value [3] of the same compound?
Answer: 4000 nM

Question: What about the “cell morphology by TEM” value (A. baumannii AYE [4]; 6 hours of incubation, MHII media) of the same compound?
Answer: cell wall disruption

Question: What about the “earliest time at which cell wall disruption was seen” value (A. baumannii AYE [4]; data not shown) of the same compound?
Answer: 3 h

Question: For “PPMO#65: adeA PPMO ATACTGTCCAA; 5' TEG, 3' (RXR)4XB (listed as DNA, chemistry not fully specified)”, which “MIC of tobramycin with adeA PPMO” value (A. baumannii AYE [2]; MHII) is on record?
Answer: 4 µg/mL

Question: And the “MIC of tobramycin with adeA PPMO” value (A. baumannii AYE [2]; minimal media)?
Answer: 1 µg/mL

Question: How did the “effect of increasing concentrations of blaT PPMO on MIC of ampicillin” value (E. coli SMS-3-5; FIG. 15A) turn out when “PPMO#66: blaT PPMO CTCTTCCTTTT; 5' TEG, 3' (RXR)4XB (listed as DNA, chemistry not fully specified)” was run?
Answer: progressively decreased

Question: “PPMO#67: cml PPMO TCCTTCTGATT; 5' TEG, 3' (RXR)4XB (listed as DNA, chemistry not fully specified)” was tested. Which “effect of increasing concentrations of cmlA PPMO on MIC of chloramphenicol” value (E. coli SMS-3-5; FIG. 15B) did it give?
Answer: progressively decreases in a dose-dependent fashion

Question: colistin [reference compound] was tested. Which MIC of colistin ([1]; without PPMO) did it give?
Answer: 1 µg/mL
